Source: patent US20150034084A1, “[…] NITRIC OXIDE FOR TREATING RESPIRATORY DISEASES” (Advanced Inhalation Therapies (AIT) Ltd., priority 2012, published 2015)
Where two headings read alike, the source gives them in different places.

Columns and labels:
[1] = Phase I safety study: pulmonary function tests; type: in vivo, human
Description: After obtaining informed consent, treatment was initiated within 5 days of enrollment. Subjects were housed in a hospital ward and received 160 ppm gNO for 30 minutes every four hours (Q4h), five times a day, for five consecutive days by inhalation. Subjects returned for follow-up evaluations 3, 7 and 21 days after the final gNO administration. Subject safety was determined by monitoring vital signs, methemoglobin levels, lung function, blood chemistry, hematology, prothrombin time, inflammatory cytokine/chemokines levels and endothelial activation. These parameters were compared to baseline and at various time-points during and after gNO administration.
Subjects underwent full pulmonary function tests (PFT), including lung diffusing capacity (DLCO) by a trained technician utilizing a calibrated pulmonary function system (Jaeger MasterScreen, VIASYS Healthcare, USA) on screening and days 2, 8, 12 and 26. Spirometry test (Microloop by Micro Medical, England) was performed on days 1, 3 and 4. Effect of gNO on lung function and DLCO was determined by changes from baseline, treatment days and follow up days.

[2] = system: all microorganisms tested; assay: Bactericidal effect of 200 ppm gNO, whole panel of microbes (average / all tested); type: cell-based; conditions: saline, average over the bacteria of Table 1
From the text: A similar procedure was used to determine the time required to induce an effective bactericidal effect with 200 parts per million gNO, a concentration just above the dose used in the dose-ranging study presented hereinabove, on a representative collection of drug resistant gram-positive and gram-negative strains of bacteria associated with clinical infection.
A successful bactericidal effect was defined as a decrease in bacteria greater than 3 log10 CFU/mL. Further, C. albicans, Methicillin Resistant S. aureus (MRSA), a particularly resistant strain of P. aeruginosa from a cystic fibrosis patient, Group B Streptococcus, and M. smegmatis were also included to evaluate if yeasts, a multi-drug resistant strain of bacteria and actinomycetes have a similar response. These bacteria represent a comprehensive variety of drug resistant bacterial pathogens that contribute to both respiratory and wound infections. The results from these studies laid the foundation for use of gNO at a concentration higher than 160 ppm as an antibacterial agent, specifically for use against bacteria associated with clinical infections.
For this study, saline was selected as a suspension media because it would not mask the direct effect of gNO as a bactericidal, whereas fully supplemented growth medium might introduce external variables (e.g., buffer or react with gNO). Other media might also provide metabolites and replenish nutrients that produce enzymes that protect bacteria from oxidative and nitrosative damage, thereby masking the effect of gNO. […] In saline, the colonies were static but remained viable. These conditions are similar to the approach previously used in animal models.
Without exception, every bacteria challenged with 200 ppm gNO had at least a 3 log10 reduction in CFU/mL. […] The latent period was then followed by an abrupt death of all cells; gram negative and gram positive bacteria, antibiotic resistant bacterial strains, yeast and mycobacteria all were susceptible to 200 ppm gNO. […]

[3] = system: five planktonic species of methicillin resistant S. aureous (MRSA); conditions: 1,600 ppm hours of gNO; cited from earlier work
E. Coli = conditions: 200 ppm gNO, saline; cited from earlier work
[4] = system: human respiratory syncytial virus (rgRSV30); assay: RSV exposure to 160 ppm gNO for 30 minutes, plaque/fluorescence assay; type: cell-based; conditions: single 30 minutes exposure to 160 ppm gNO
[5] = system: chronic, non-healing wound; conditions: topical 200 ppm gNO, cited from earlier work
Mycobacterium = conditions: 200 ppm gNO, saline; cited from earlier work
S. aureus = conditions: cited from earlier work
Pseudomonas aeruginosa = conditions: 160 ppm gNO, intermittent 30 minute exposures, rat; cited from earlier work
Klebsiella sp.#2 = conditions: 200 ppm gNO, saline; cited from earlier work
Group B Streptococci = conditions: 200 ppm gNO, saline; cited from earlier work
[6] = rats, cited from earlier work
Klebsiella sp.#1 = conditions: 200 ppm gNO, saline; cited from earlier work
S. aureus (Clinical) = conditions: 200 ppm gNO, saline; cited from earlier work

## [N]=O [gNO, nitric oxide]
[1]; 160 ppm NO, measured by lung function parameters
  lung parenchymal injury: did not cause lung parenchymal injury
[1]; during and after gNO administration, 160 ppm
  pulmonary function tests, abnormalities: did not reveal any abnormalities
[1]; during the course of the study
  DLCO versus baseline: did not change from baseline
  FEV1 versus baseline: did not differ from baseline
  forced vital capacity (FVC) versus baseline: did not change from baseline
  maximum mid-expiratory flow (MMEF) versus baseline: did not differ from baseline
  residual volume (RV) versus baseline: did not change from baseline
  total lung capacity (TLC) versus baseline: did not change from baseline
[2]
  LD100, Average: 4.77 h
  Latent Period, Average: 2.77 h
  −2.5 Log10, Average: 3.82 hours
[3]
  population of planktonic MRSA strains: A reduction in the population of all five MRSA planktonic strains was observed
E. Coli
  LD100: 5 h
  Latent Period: 3 h
  −2.5 Log10: 4.2 hours
[4]; starting level 500 PFU
  viral viability: substantially nullified
[4]; starting level 1000 PFU
  reduction of virus viability (factor): ~10
[4]; starting level 2000 PFU
  reduction of virus viability (factor): ~10
[5]; at one week
  reduction of wound size: 42%
[5]; within the first three days of treatment
  biofilm on wound: no longer visibly present
Mycobacterium
  LD100: 10 h
  Latent Period: 7 h
  −2.5 Log10: 9.2 hours
S. aureus; 50-160 ppm gNO, solid media, vs medical air
  survival (downward bactericidal trend towards): 5-10%
S. aureus; gNO greater than 120 ppm, agar plates
  reduction of colony formation: greater than 90%
S. aureus; gNO greater than 120 ppm
  time required to achieve the >90% reduction of colony formation: 8 to 12 h
Pseudomonas aeruginosa
  pulmonary bioburden and leukocyte infiltration: effective to reduce the pulmonary bioburden and leukocyte infiltration
Klebsiella sp.#2
  LD100: 5 h
  Latent Period: 2 h
  −2.5 Log10: 4.1 hours
Group B Streptococci
  LD100: 2 h
  Latent Period: 1 h
  −2.5 Log10: 1.5 hours
[6]; 300 ppm gNO, groups of 10, first 1-2 days
  mortality: Six of the animals
[6]; 400 ppm gNO, 6 hours per day
  mortality: all of the animals died on the first day
[6]; 400 ppm gNO
  MetHb level: 72.5 percents
[6]; 500 ppm gNO, 6 hours per day
  mortality: all of the animals died on the first day
[6]; 500 ppm gNO
  MetHb level: 67 percents
Klebsiella sp.#1
  LD100: 6 h
  Latent Period: 3 h
  −2.5 Log10: 3.5 hours
S. aureus (Clinical)
  LD100: 4 h
  Latent Period: 3 h
  −2.5 Log10: 3.7 hours
